According to patent publication US11802128B2, “Azetidine and pyrrolidine PARP1 inhibitors and uses thereof” (Xinthera, Inc., priority 2021, dated 2023):

Assays:
DLD-1 BRCA2(−/−) cells = assay: Cell growth inhibition assay (CellTiter-Glo cell viability, 7 days); assay type: cell-based; details: Homo sapiens, 168 h
Source text: (§1) The objective of this study is to evaluate the effect of invention compounds on cell proliferation through the cell viability assay in DLD-1 BRCA2(−/−) and parental isogenic pair and MDA-MB-436 (mutated BRCA1) cell lines. The CellTiter-Glo (CTG) based cell viability assay is designed to determine the number of viable cells in the culture because of compound effect, by quantifying ATP, which indicates the presence of metabolically active cells.
(§2) DLD-1 BRCA2(−/−) and parental isogenic pair were cultured in RPMI 1640 supplemented with 10% fetal bovine serum (FBS), and MDA-MB-436 cells were cultured in DMEM supplemented with 10% FBS. Both are culture at 37° C. with 5% CO2. Invention compounds were distributed to the 384 well plate (Corning, 3764) using Echo acoustic liquid handler to form a 1:3 serially diluted final concentration with top dose of 10 or 30 μM. The cells were seeded into the plate in the density of 50 cells/well (DLD-1 parental), 200 cells/well (DLD-1 BRCA2−/−), or 500 cells/well (MDA-MB-436). After a short spun, the cells were cultured in a well moisturized incubator at 37° C. with 5% CO2 for 7 days without disturbance. The cell viability was measured by CellTiter Glo 2.0 assay kit (Promega, G9243), and growth inhibition rate was calculated and plotted against final compound concentration, and the data were fitted in Xfit to generate IC50.

[1] = system: MDA-MB-436 (mutated BRCA1) cells; assay: as above; assay type: cell-based; details: Homo sapiens, 168 h, MDA-MB-436, 7 days
Source text: as §1, §2

PARP1 = PARP1 (Homo sapiens (Human), UniProt P09874); assay: Biochemical fluorescent polarization (FP) assay, displacement of PARPi-FL; assay type: binding; details: 20 nM protein, 3 nM PARPi-FL, 4 h at room temperature
Procedure: (§3) The assay was performed utilizing the following method:
(§4) 100% DMSO was used for the high (with protein) and low (without protein) control samples. 20 nL of compound or DMSO alone was added to individual assay plate wells.
(§5) PARP1 and PARP2 protein were expressed, purified, and diluted in assay buffer containing 50 mM Tris pH 8.0, 0.001% Triton X-100, 10 mM MgCl2, 150 mM NaCl to a final concentration of 20 nM. The PARPi-FL was then added at a final concentration of 3 nM.
(§6) The assay plate is centrifuged at 1000 rpm for 1 min and incubated for 4 h at room temperature.
(§7) The fluorescent polarization is read using an Envision plate reader using the following settings: […]

PARP2 = PARP2 (Homo sapiens (Human), UniProt Q9UGN5); assay: as above; assay type: binding; details: 20 nM protein, 3 nM PARPi-FL, 4 h at room temperature; read-out: IC50 FP PARP2
Procedure: as §3, §4, §5, §6, §7

Sequence of PARP1 (P09874 whole entry): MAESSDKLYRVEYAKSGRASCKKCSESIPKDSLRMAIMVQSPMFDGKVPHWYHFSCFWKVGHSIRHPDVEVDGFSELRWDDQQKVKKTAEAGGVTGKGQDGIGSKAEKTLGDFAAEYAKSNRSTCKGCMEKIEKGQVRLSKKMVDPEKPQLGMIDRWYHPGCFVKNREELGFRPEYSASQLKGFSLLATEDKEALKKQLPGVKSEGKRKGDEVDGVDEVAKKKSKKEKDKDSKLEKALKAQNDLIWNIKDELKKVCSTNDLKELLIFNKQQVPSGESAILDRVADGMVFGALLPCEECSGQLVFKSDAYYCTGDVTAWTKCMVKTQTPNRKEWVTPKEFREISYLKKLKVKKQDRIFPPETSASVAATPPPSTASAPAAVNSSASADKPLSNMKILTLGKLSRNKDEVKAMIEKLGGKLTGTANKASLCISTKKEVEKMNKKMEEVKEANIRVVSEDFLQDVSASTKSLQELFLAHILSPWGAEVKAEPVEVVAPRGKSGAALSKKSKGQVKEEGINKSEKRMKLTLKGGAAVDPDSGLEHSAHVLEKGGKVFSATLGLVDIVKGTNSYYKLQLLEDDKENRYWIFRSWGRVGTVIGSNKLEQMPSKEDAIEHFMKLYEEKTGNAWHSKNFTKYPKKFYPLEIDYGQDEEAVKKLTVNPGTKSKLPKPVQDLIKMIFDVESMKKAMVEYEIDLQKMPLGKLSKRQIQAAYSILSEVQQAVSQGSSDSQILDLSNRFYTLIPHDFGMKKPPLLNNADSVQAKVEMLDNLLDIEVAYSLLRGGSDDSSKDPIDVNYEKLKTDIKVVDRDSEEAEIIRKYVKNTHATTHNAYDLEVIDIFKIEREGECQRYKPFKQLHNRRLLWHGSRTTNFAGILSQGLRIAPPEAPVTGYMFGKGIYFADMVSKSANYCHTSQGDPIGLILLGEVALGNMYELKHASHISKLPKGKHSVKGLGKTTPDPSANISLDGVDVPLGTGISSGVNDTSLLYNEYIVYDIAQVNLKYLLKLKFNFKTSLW
Sequence of PARP2 (Q9UGN5 whole entry): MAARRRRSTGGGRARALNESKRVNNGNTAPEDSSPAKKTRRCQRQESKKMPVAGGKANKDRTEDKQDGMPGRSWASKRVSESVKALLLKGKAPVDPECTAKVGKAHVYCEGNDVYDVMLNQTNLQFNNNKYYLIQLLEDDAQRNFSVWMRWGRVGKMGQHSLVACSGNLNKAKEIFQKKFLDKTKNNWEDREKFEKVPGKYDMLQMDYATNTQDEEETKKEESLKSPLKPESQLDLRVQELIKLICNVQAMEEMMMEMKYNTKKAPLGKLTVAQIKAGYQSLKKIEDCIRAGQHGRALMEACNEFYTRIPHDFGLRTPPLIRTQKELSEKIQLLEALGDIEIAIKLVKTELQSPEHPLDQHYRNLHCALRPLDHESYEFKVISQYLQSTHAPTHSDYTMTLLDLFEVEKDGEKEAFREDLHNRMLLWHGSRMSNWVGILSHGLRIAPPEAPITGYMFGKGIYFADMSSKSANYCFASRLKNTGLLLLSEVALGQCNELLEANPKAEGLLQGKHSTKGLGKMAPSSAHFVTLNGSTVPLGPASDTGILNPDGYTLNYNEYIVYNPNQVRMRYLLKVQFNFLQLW

Row | SMILES | EC50 (DLD-1 BRCA2(−/−) cells) | EC50 [1] | IC50 (PARP1) | IC50 (PARP2)
1 | CCc1cc2ncc(CN3C[C@H](Oc4ccc(C(=O)NC)cc4)[C@H]3C)cc2[nH]c1=O [Example 64] | 0.096 µM | 0.043 µM | > 0.1 µM | 2.6 µM
2 | Cc1cc2ncc(CN3CC(Oc4ccc(C(=O)NC5CC5)nc4)C3)cc2[nH]c1=O [Example 57] | 0.012 µM | 0.0068 µM | 0.0094 µM | 47 µM
3 | C[C@@H]1[C@@H](Oc2ccc(C(=O)NC3CC3)nc2)CN1Cc1cnc2cc(C3CC3)c(=O)[nH]c2c1 [Example 42] | 0.0021 µM | 0.0011 µM | 0.0058 µM | 6.3 µM
4 | Cc1cc2ncc(CN3CC[C@@H](Oc4cnc(C(=O)NC5CC5)c(F)c4)C3)cc2[nH]c1=O [Example 26] | 0.055 µM | 0.06 µM | 0.012 µM | > 100 µM
5 | CCc1cn2nc(CN3C[C@H](Oc4ccc(C(=O)NC)nc4)[C@H]3C)cc2[nH]c1=O [Example 46] | 0.09 µM | 0.1 µM | 0.0099 µM | > 100 µM
6 | CCc1cc2ncc(CN3CC(Oc4ccc(C(=O)NC5CC5)nc4)C3)cc2[nH]c1=O [Example 21, N-cyclopropyl-5-({1-[(7-ethyl-6-oxo-5H-1,5-naphthyridin-3-yl)methyl]azetidin-3-yl}oxy)pyridine-2-carboxamide] | 0.0018 µM | 0.0012 µM | 0.0066 µM | 14 µM
7 | CNC(=O)c1ccc(O[C@H]2CN(Cc3ccc4nc(C)c(=O)[nH]c4c3F)[C@@H]2C)cn1 [Example 91] | 0.023 µM | 0.027 µM | 0.011 µM | > 100 µM
8 | CNC(=O)c1ccc(O[C@H]2CN(Cc3cnc4cc(Cl)c(=O)[nH]c4c3)[C@@H]2C)cn1 [Example 77] | 0.0038 µM | 0.0018 µM | 0.0038 µM | > 100 µM
9 | CCc1cc2ncc(CN3CC[C@@H](Oc4ccc(C#N)cn4)C3)cc2[nH]c1=O [Example 29] | 0.078 µM | 0.14 µM | 0.011 µM | 72 µM
10 | CCc1cc2ncc(CN3C[C@H](Oc4ccc(C#N)cn4)[C@H]3C)cc2[nH]c1=O [Example 34] | 0.15 µM | 0.084 µM | 0.013 µM | 12 µM
11 | CCc1cc2ncc(CN3C[C@H](Oc4ccc(C(=O)NC5COC5)nc4)[C@H]3C)cc2[nH]c1=O [Example 44, 5-(((2R,3S)-1-((7-ethyl-6-oxo-5,6-dihydro-1,5-naphthyridin-3-yl)methyl)-2-methylazetidin-3-yl)oxy)-N-(oxetan-3-yl)picolinamide] | 0.0035 µM | 0.0013 µM | 0.0067 µM | 11 µM
12 | CNC(=O)c1ncc(O[C@H]2CN(Cc3cnc4cc(C)c(=O)[nH]c4c3)[C@@H]2C)cc1F [Example 52] | 0.012 µM | 0.0098 µM | 0.0063 µM | 76 µM
13 | CCc1cc2ncc([C@H](C)N3C[C@H](Oc4ccc(C(=O)NC)nc4)[C@H]3C)cc2[nH]c1=O (single isomer, unassigned) [Example 55, 5-{[(2R,3S)-1-[(1R*)-1-(7-ethyl-6-oxo-5H-1,5-naphthyridin-3-yl)ethyl]-2-methylazetidin-3-yl]oxy}-N-methylpyridine-2-carboxamide] | 0.038 µM | 0.012 µM | 0.0064 µM | > 100 µM
14 | CCc1cc2ncc(CN3C[C@H](Oc4ccc(F)cc4)[C@H]3C)cc2[nH]c1=O [Example 51] | 0.0044 µM | 0.0079 µM | 0.0041 µM | 4.2 µM
15 | CCc1cc2ncc(CN3CC[C@@H](n4ccc5nc(C(=O)NC)ccc54)C3)cc2[nH]c1=O [Example 49] | 0.0092 µM | 0.0095 µM | 0.0063 µM | > 100 µM
16 | CCc1cc2ncc(CN3C[C@H](Oc4cnc(C(=O)NC)c(F)c4)[C@H]3C)cc2[nH]c1=O [Example 38] | 0.0029 µM | 0.0023 µM | 0.0061 µM | 10 µM
17 | CNC(=O)c1ccc(O[C@@H]2CCN(Cc3cnc4c(c3)[nH]c(=O)c3ccoc34)C2)cn1 [Example 35] | 0.0099 µM | 0.032 µM | 0.0036 µM | > 100 µM
18 | Cc1cc2ncc(CN3CCC(Oc4ccc(C(=O)NCC(F)F)nc4)C3)cc2[nH]c1=O (stereo in doubt) [Example 10, N-(2,2-difluoroethyl)-5-{[(3R)-1-[(7-methyl-6-oxo-5H-1,5-naphthyridin-3-yl)methyl]pyrrolidin-3-yl]oxy}pyridine-2-carboxamide] | 0.0088 µM | 0.0068 µM | 0.0068 µM | > 100 µM

Row | SMILES | EC50 (DLD-1 BRCA2(−/−) cells) | EC50 [1] | IC50 (PARP1) | IC50 (PARP2)
19 | CCc1nc2cc(F)c(CN3C[C@H](Oc4ccc(C(=O)NC)nc4)[C@H]3C)cc2[nH]c1=O [Example 59] | 0.0098 µM | 0.0047 µM | 0.0055 µM | > 100 µM
20 | CNC(=O)c1ncc(O[C@@H]2CCN(Cc3cnc4cc(C5CC5)c(=O)[nH]c4c3)C2)cc1F [Example 25] | 0.036 µM | 0.041 µM | 0.011 µM | 25 µM
21 | Cc1cc2ncc(CN3C[C@H](Oc4ccc(C(=O)NC5(C)CC5)nc4)[C@H]3C)cc2[nH]c1=O [Example 74] | 0.0039 µM | 0.0026 µM | 0.0089 µM | 25 µM
22 | O=C(NC1CC1)c1ccc(OC2CN(Cc3cnc4cc(C5CC5)c(=O)[nH]c4c3)C2)cn1 [Example 73] | 0.0048 µM | 0.0021 µM | 0.0036 µM | 1.7 µM
23 | CCc1cc2ncc(CN3CC[C@@H](Oc4ccc(C(=O)NC5COC5)nc4)C3)cc2[nH]c1=O [Example 33] | 0.0042 µM | 0.0037 µM | 0.0055 µM | 33 µM
24 | CNC(=O)c1ccc(O[C@H]2CN(Cc3ccc4cc(Cl)c(=O)[nH]c4c3F)[C@@H]2C)cn1 [Example 106, 5-{[(2R,3S)-1-[(3-chloro-8-fluoro-2-oxo-1H-quinolin-7-yl)methyl]-2-methylazetidin-3-yl]oxy}-N-methylpyridine-2-carboxamide] | 0.0083 µM | 0.005 µM | – | –
25 | CCc1cc2ncc(CN3C[C@H](Oc4ccc(C#N)c(F)c4)[C@H]3C)cc2[nH]c1=O [Example 68] | 0.015 µM | 0.018 µM | – | –
26 | CNC(=O)c1ccc(O[C@H]2CN(Cc3ccc4c([nH]c(=O)c5c(F)cnn54)c3F)[C@@H]2C)cn1 [Example 121, 5-{[(2R,3S)-1-({3,6-difluoro-4-oxo-5H-pyrazolo[1,5-a]quinoxalin-7-yl}methyl)-2-methylazetidin-3-yl]oxy}-N-methylpyridine-2-carboxamide] | 0.0012 µM | 0.0018 µM | – | –
27 | Cc1nc2ccc(CN3C[C@H](Oc4ccc(C(=O)NC5CC5)nc4)[C@H]3C)c(F)c2[nH]c1=O [Example 94] | 0.043 µM | 0.011 µM | – | –
28 | CNC(=O)c1ccc(OC2CN(Cc3cnc4cc(C5CC5)c(=O)[nH]c4c3)C2)cn1 [Example 16, 5-({1-[(7-cyclopropyl-6-oxo-5H-1,5-naphthyridin-3-yl)methyl]azetidin-3-yl}oxy)-N-methylpyridine-2-carboxamide] | 0.049 µM | 0.018 µM | – | –
29 | CCc1nc2ccc(CN3CC(Oc4ccc(C(=O)NC5CC5)nc4)C3)c(F)c2[nH]c1=O [Example 117] | 0.013 µM | 0.013 µM | – | –
30 | C[C@@H]1[C@@H](Oc2ccc(C(=O)NC3CC3)nc2)CN1Cc1ccc2c3c(c(=O)[nH]c2c1F)CCO3 [Example 116] | 0.013 µM | 0.0033 µM | – | –
31 | CCc1cc2ncc(CN3CC[C@@H](Cc4ccc(C(=O)NC)nc4)C3)cc2[nH]c1=O [Example 13, 5-{[(3R)-1-[(7-ethyl-6-oxo-5H-1,5-naphthyridin-3-yl)methyl]pyrrolidin-3-yl]methyl}-N-methylpyridine-2-carboxamide] | 0.038 µM | 0.012 µM | – | –
32 | CCc1nc2c(F)cc(CN3C[C@H](Oc4ccc(C(=O)NC)nc4)[C@H]3C)c(F)c2[nH]c1=O [Example 107] | 0.03 µM | 0.017 µM | – | –
33 | CCc1cc2ncc(CN3C[C@H](Oc4ccc(C#N)cc4C#N)[C@H]3C)cc2[nH]c1=O [Example 72] | 0.033 µM | 0.05 µM | – | –
34 | CCc1cc2ncc(CN3CC[C@@H](N(C)c4ccc(C(=O)NC)nc4)C3)cc2[nH]c1=O [Example 11, 5-{[(3R)-1-[(7-ethyl-6-oxo-5H-1,5-naphthyridin-3-yl)methyl]pyrrolidin-3-yl](methyl)amino}-N-methylpyridine-2-carboxamide] | 0.028 µM | 0.019 µM | – | –
35 | C[C@@H]1[C@@H](Oc2ccc(C(=O)NC3CC3)nc2F)CN1Cc1cnc2cc(Cl)c(=O)[nH]c2c1 [Example 105] | 0.0022 µM | 0.00093 µM | – | –
